# Laboratory results taken from patent US20260210976A1, “METHOD TO DETECT AND TREAT PERIPHERAL NEUROPATHY” (Ohio State Innovation Foundation, priority 2022, published 2026).
# What was measured:
# [1] = system: PSD95 and PGP9.5 protein expression in scWAT; test: Western blot of scWAT after daily intra-adipose CL316 243; type: in vivo; details: daily intra-adipose administration for 7 days
# scWAT collagen = test: Picrosirius red staining and collagen birefringence quantification of scWAT; type: in vivo, mouse
# Source text: Intact scWAT and pgWAT depots were excised from BL6 and HET3 mice, fixed in 10% buffered formalin overnight at room temperature and embedded in paraffin. Paraffin embedded tissues were sectioned 7 μm thick. Tissue sections were deparaffinized with HistoChoice Clearing Agent (Sigma-Aldrich Cat #H2779) and hydrated in decreasing concentrations of EtOH (100%, 95% 70%, 30%, 0%). Tissues were stained in picrosirius red stain (Electron Microscopy Sciences Cat #26357) for 1 hr, washed in two changes of acidified water (5 seconds each), dehydrated in three changes of 100% EtOH, cleared in histo-grade Xylenes for 5 minutes and cover slipped using Permount mounting media (Electron Microscopy Sciences Cat #17986-01). Five representative images per tissue were captured using both brightfield and circularly polarized light to gauge collagen distribution. Total collagen was measured by first quantifying the area comprised by picrosirius red staining in the field of view using brightfield microscopy. This was then divided by the area comprised exclusively of polarized collagen fibers. […] To differentiate the relative contribution of collagen fiber thicknesses, methods were adapted from (Rich & Whittaker, 2005) for use in Fiji (Schindelin et al., 2012). Hue values used for this analysis were as follows: green (52-128), yellow (39-51), orange (10-38), and red (0-9, 230-255). Saturation was not accounted for, and brightness was thresholded at 35-255 to prevent noise from being included in pixel counts. See FIG. 11 for a schematic of this method.
# scWAT = test: Hematoxylin staining of scWAT sections; type: in vivo, mouse
# Source text: Intact inguinal scWAT (ing-scWAT), axillary scWAT (ax-scWAT), and perigonadal WAT (pgWAT) depots were excised from BL6 and HET3 mice, fixed in 10% buffered formalin overnight at room temperature and embedded in paraffin. Paraffin embedded tissues were sectioned 7 μm thick. Tissue sections were deparaffinized with HistoChoice Clearing Agent and hydrated in decreasing concentrations of EtOH (100%, 95% 70%, 30%, 0%). Tissues were stained in Mayer's Hematoxylin Solution (Sigma-Aldrich Cat #MHS16) or Mayer's Hemalum Solution (Sigma-Aldrich Cat #109249) and a drop of mounting fluid was applied, and tissues were cover slipped, sealed, and imaged. Three representative images were captured per tissue per animal and cell perimeter and area was measured in Fiji (Schindelin et al., 2012).
# [2] = system: diabetic NONcNZO10/LtJ mice; details: 14 ppm diet-fed (Reifsnyder, Doty, & Harrison, 2014); cited from earlier work
# [3] = Harrison et al., 2009; cited from earlier work
total increase in collagen between treatment groups (scWAT collagen; early-intervention),collagen deposition versus vehicle group (scWAT collagen; early-intervention group),"animals exhibiting severely fibrotic tissue (scWAT collagen; early-intervention, females)","animals exhibiting severely fibrotic tissue (scWAT collagen; early-intervention, males)","green collagen fibers (birefringence) (scWAT collagen; early-intervention, males)","orange collagen fibers (birefringence) (scWAT collagen; early-intervention, males)","thick collagen fibers (orange+red), share of thin:thick ratio (scWAT collagen; early-intervention, males) [%]","thin collagen fibers, share of thin:thick ratio (scWAT collagen; early-intervention, males) [%]",birefringence patterns (scWAT collagen; late-intervention),"total collagen (scWAT collagen; late-intervention, females)","total collagen (scWAT collagen; late-intervention, males, failed to meet statistical significance)",adipose tissue inflammation and fibrosis (scWAT collagen; overall statement),scWAT fibrosis (scWAT collagen; treatment started early in life),Structure (SMILES),PGP9.5 protein expression in scWAT [1],PSD95 expression in scWAT [1],"crown-like structures, lipofuscin and immune cell infiltration in scWAT (scWAT; early-intervention group (started ~30 weeks))","crown-like structures, lipofuscin and immune cell infiltration in scWAT (scWAT; late-intervention group (started ~72 weeks))",pancreatic fibrosis [2],"circulating rapamycin, males versus females [3]"
,,,,,,,,,,,,,C[C@H](Cc1ccc2c(c1)OC(C(=O)[O-])(C(=O)[O-])O2)NC[C@H](O)c1cccc(Cl)c1.[Na+].[Na+] [CL316 243],upward trend,increased,,,,
not statistically significant,greater,3 out of 11,3 out of 8,decreased,increased,75,25,did not vary,no difference,possible increase,worsened,increased,CO[C@H]1C[C@@H]2CC[C@@H](C)[C@@](O)(O2)C(=O)C(=O)N2CCCC[C@H]2C(=O)O[C@H]([C@H](C)C[C@@H]2CC[C@@H](O)[C@H](OC)C2)CC(=O)[C@H](C)/C=C(\C)[C@@H](O)[C@@H](OC)C(=O)[C@H](C)C[C@H](C)/C=C/C=C/C=C/1C [rapamycin],,,increased,not observed,caused pancreatic fibrosis,equivalent
